These results are taken from patent US20220267313A1, “DIHYDROPYRIMIDINE DERIVATIVES AND USES THEREOF IN THE TREATMENT OF HBV INFECTION OR OF HBV-INDUCED DISEASES” (Janssen Sciences Ireland Unlimited Company, priority 2019, published 2022).

In one data set the test system is HBV. Kind of data set: Anti-HBV activity: HBV DNA in culture medium by qPCR, HepG2.2.15 cells. As to conditions: Hepatitis B virus, 144 h, 6 days treatment. Type of data set: cell-based. As for the experimental part:
(§1) HepG2.2.15 (the HepG2.2.15 cell line can be produced by transfection of the HepG2 cell line as described in Sells, Chen, and Acs 1987 (Proc. Natl. Acad. Sci. USA 84: 1005-1009), and the HepG2 cell line is available from ATCC® under number HB-8065™)
(§2) HepG2.2.15 cells were plated into 96-well plate in 2% FBS culture medium at the density of 40,000 cells/well and 5,000 cells/well for HBV inhibitory activity and cytotoxicity determination, respectively. After incubation at 37° C., 5% CO2 overnight, cells were treated with medium containing compounds for 6 days with medium and compounds refreshed after 3 days of treatment. Each compound was tested in a 1:3 serial dilutions at 8 different concentrations in triplicate. The highest concentration of the compounds was 10 uM or 1 uM for anti-HBV activity assay and 100 uM for cytotoxicity determination.
The change of HBV DNA level induced by the compounds was assessed by quantitative real-time polymerase chain reaction (qPCR). Briefly, the HBV DNA in the culture medium was extracted using QIAamp 96 DNA Blood Kit according to the manual and then quantified by real-time PCR assay using the primers and probe in the table 1 below.
(§3) EC50 and CC50 values are calculated by the GRAPHPAD PRISM software.
(Quantitative PCR measures a nucleic acid by following its amplification.)

The nature of data set [1]: Cytotoxicity determination by CCK-8 assay, HepG2.2.15 cells. Type of data set: cell-based. As to conditions: human, 6 days treatment. How it is done:
as §1, §2
Cell viability was determined by CCK-8 assay. After 6 days of compounds treatment, 20 μl CCK-8 reagents were added to each well of cytotoxicity assay plates. Cell plates were incubated at 37° C., 5% CO2 for 2.5 h. The absorbance at 450 nm wavelength and the absorbance at 630 nm wavelength as reference was measured.
as §3
(In general: Formazan colour is commonly taken as a measure of viable cells.)

As for `CCOC(=O)C1=C(C23C4C5C2C2C3C4C52C(=O)O)NC(c2nccs2)=N[C@@H]1c1ccc(F)cc1Cl` (stereo in doubt) [Ib-6, (2S,3S,5S,6S,7S,8S)-4-((S*)-6-(2-chloro-4-fluorophenyl)-5-(ethoxycarbonyl)-2-(thiazol-2-yl)-3,6-dihydropyrimidin-4-yl)cubane-1-carboxylic Acid], the EC50 in the data set with HBV was greater than 50000 nM. This compound also registered a half-maximal cytotoxic concentration (CC50) at 6 days in data set [1] of 18 nM.
As for `CCOC(=O)C1=C(C23C4C5C2C2C3C4C52C(=O)O)NC(c2nccs2)=N[C@@H]1c1ccc(F)c(F)c1Cl` (stereo in doubt) [Ib-7, (2S,3S,5S,6S,7S,8S)-4-((S*)-6-(2-chloro-3,4-difluorophenyl)-5-(ethoxycarbonyl)-2-(thiazol-2-yl)-3,6-dihydropyrimidin-4-yl)cubane-1-carboxylic Acid], in the data set with HBV, the EC50 worked out at 25000 nM. The CC50 at 6 days in data set [1] is 5 nM.
The like results for `COC(=O)C1=C(C23C4C5C2C2C3C4C52C(=O)O)NC(c2nccs2)=N[C@@H]1c1ccc(F)c(F)c1Br` (stereo in doubt) [Ib-13, (2S,3S,5S,6S,7S,8S)-4-((S*)-6-(2-bromo-3,4-difluorophenyl)-5-(methoxycarbonyl)-2-(thiazol-2-yl)-3,6-dihydropyrimidin-4-yl)cubane-1-carboxylic Acid] were, in that order, greater than 25000 nM and 27 nM.
The like results for `CCOC(=O)C1=C(C23C4C5C2C2C3C4C52C(=O)O)NC(c2nccs2)=N[C@@H]1c1ccc(F)c(F)c1Br` (stereo in doubt) [Ib-14, (2S,3S,5S,6S,7S,8S)-4-((S*)-6-(2-bromo-3,4-difluorophenyl)-5-(ethoxycarbonyl)-2-(thiazol-2-yl)-3,6-dihydropyrimidin-4-yl)cubane-1-carboxylic Acid] were, in that order, 41000 nM and 7 nM.
The like results for `CCOC(=O)C1=C(C23C4C5C2C2C3C4C52C(=O)O)NC(c2nccs2)=N[C@@H]1c1cccc(F)c1Cl` (stereo in doubt) [Ib-15, (2S,3S,5S,6S,7S,8S)-4-((S*)-6-(2-chloro-3-fluorophenyl)-5-(ethoxycarbonyl)-2-(thiazol-2-yl)-3,6-dihydropyrimidin-4-yl)cubane-1-carboxylic Acid] were, in that order, greater than 50000 nM and 19 nM.
Compound `COC(=O)C1=C(C23C4C5C2C2C3C4C52C(=O)O)NC(c2nccs2)=N[C@@H]1c1ccc(F)cc1Br` (stereo in doubt) [Ib-16, (2S,3S,5S,6S,7S,8S)-4-((S*)-6-(2-bromo-4-fluorophenyl)-5-(methoxycarbonyl)-2-(thiazol-2-yl)-3,6-dihydropyrimidin-4-yl)cubane-1-carboxylic Acid] came in with a 50% effective concentration (EC50) in the data set on HBV greater than 50000 nM. The same compound showed a CC50 at 6 days in data set [1] of 71 nM.
The compound `COC(=O)C1=C(C23C4C5C2C2C3C4C52C(=O)O)NC(c2nccs2)=N[C@@H]1c1cccc(F)c1Br` (stereo in doubt) [Ib-17, (2S,3S,5S,6S,7S,8S)-4-((S*)-6-(2-bromo-3-fluorophenyl)-5-(methoxycarbonyl)-2-(thiazol-2-yl)-3,6-dihydropyrimidin-4-yl)cubane-1-carboxylic Acid] showed an EC50 in the data set on HBV of 25000 nM. Further, in data set [1], it took 125 nM to reach half-maximal cytotoxicity (CC50 at 6 days).
The like results for `COC(=O)C1=C(C23C4C5C2C2C3C4C52C(=O)O)NC(c2nccs2)=N[C@@H]1c1ccc(F)c(F)c1F` (stereo in doubt) [Ib-22, (S*)-4-((2,3,4-trifluorophenyl)-6-(methoxycarbonyl)-2-(thiazolel-4-yl))-1,4-dihydropyrimidin-4-yl)cubane-5-carboxylic Acid] were, in that order, greater than 25000 nM and 282 nM.
The like results for `CCOC(=O)C1=C(C23C4C5C2C2C3C4C52C(=O)O)NC(c2nccs2)=N[C@H]1c1ccc(F)cc1` (stereo in doubt) [Ib-24, (2S,3S,5S,6S,7S,8S)-4-((S*)-5-(ethoxycarbonyl)-6-(4-fluorophenyl)-2-(thiazol-2-yl)-3,6-dihydropyrimidin-4-yl)cubane-1-carboxylic Acid] were, in that order, greater than 25000 nM and 223 nM.
`CCOC(=O)C1=C(C23C4C5C2C2C3C4C52C(=O)O)NC(c2nccs2)=N[C@@H]1c1ccccc1Cl` (stereo in doubt) [Ib-25, (2S,3S,5S,6S,7S,8S)-4-((S*)-6-(2-chlorophenyl)-5-(ethoxycarbonyl)-2-(thiazol-2-yl)-3,6-dihydropyrimidin-4-yl)cubane-1-carboxylic Acid] came in with an EC50 in the data set with HBV greater than 50000 nM. In data set [1], this compound registered a 50% cytotoxic concentration (CC50) at 6 days of 65 nM.

By EC50 is commonly meant the concentration that produces a half-maximal response. A lower EC50 goes with an effect from little substance. The CC50 is the concentration that lowers cell viability or growth by half. Read a high CC50 as lower toxicity to the cells.
